Measured values as given in PubChem BioAssay (NCI).
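Where inhibition never reached the appropriate level, the endpoint shown equals the highest concentration tested. Otherwise, values were interpolated linearly from a five-concentration, 48-hour dose response in 96-well plates. GI50: concentration for 50% inhibition of growth. TGI denotes the concentration required for complete inhibition of growth.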

Assays:
Assay in all cases: growth of human tumour cells (NCI), 48 h
IGROV1 ovarian = system: IGROV1 ovarian
KM12 colon = system: KM12 colon
MALME-3M melanoma = system: MALME-3M melanoma
OVCAR-4 ovarian = system: OVCAR-4 ovarian
OVCAR-8 ovarian = system: OVCAR-8 ovarian
RPMI-8226 leukemia = system: RPMI-8226 leukemia
SK-MEL-5 melanoma = system: SK-MEL-5 melanoma
SW-620 colon = system: SW-620 colon
T-47D breast = system: T-47D breast
TK-10 renal = system: TK-10 renal

Structure (SMILES) | TGI (IGROV1 ovarian) [µM] | TGI (KM12 colon) [µM] | TGI (MALME-3M melanoma) [µM] | TGI (OVCAR-4 ovarian) [µM] | TGI (OVCAR-8 ovarian) [µM] | TGI (RPMI-8226 leukemia) [µM] | TGI (SK-MEL-5 melanoma) [µM] | TGI (SW-620 colon) [µM] | TGI (T-47D breast) [µM] | TGI (TK-10 renal) [µM] | GI50 (IGROV1 ovarian) [µM] | GI50 (KM12 colon) [µM] | GI50 (MALME-3M melanoma) [µM] | GI50 (OVCAR-4 ovarian) [µM] | GI50 (OVCAR-8 ovarian) [µM] | GI50 (RPMI-8226 leukemia) [µM] | GI50 (SK-MEL-5 melanoma) [µM] | GI50 (SW-620 colon) [µM] | GI50 (T-47D breast) [µM] | GI50 (TK-10 renal) [µM]
OC(COc1ccc(Cl)cc1Cl)CN1CCCC1 (stereo not given) | > 100 | > 100 | > 100 | > 100 | > 100 | > 100 | > 100 | > 100 | > 100 | > 100 | – | – | – | – | – | – | – | – | – | –
CC12C=CC(C)(O1)C1C2c2ccccc2S1(=O)=O (stereo not given) | 95.3 | > 100 | > 100 | > 100 | > 100 | > 100 | > 100 | > 100 | > 100 | > 100 | 25.1 | > 100 | 50.3 | 31.6 | > 100 | 44.3 | 38.7 | 39.9 | 95.5 | > 100
CCOC(=O)Nc1nc2c(F)c(F)c(F)cc2s1 | > 100 | > 100 | > 100 | > 100 | > 100 | > 100 | > 100 | > 100 | > 100 | > 100 | > 100 | > 100 | > 100 | 37.5 | 48.1 | > 100 | > 100 | > 100 | 61.8 | > 100
COc1cc2c(cc1OCCCCCCNC(=O)c1cc3ccccc3[nH]1)N=CC1CCCN1C2=O (stereo not given) | > 100 | > 100 | > 100 | > 100 | > 100 | 77.6 | 32 | > 100 | > 100 | 93.6 | 17.4 | 34.8 | 20.5 | 89.4 | 30.5 | 18.7 | 14.2 | 38.6 | 15.4 | 20.7
COc1cc(Nc2ncc3c(n2)-c2ccc(Cl)cc2C(c2c(F)cccc2OC)=NC3)ccc1C(=O)O | 19.3 | > 92.9 | > 89.1 | > 86.2 | > 100 | > 65 | 29.1 | > 100 | > 91.2 | 24.4 | 2.19 | 0.26 | 16.9 | 3.7 | 8.94 | 12 | 12.3 | 1.74 | 12.1 | 4.61
COc1ccc(N2CCN(CC(=O)N3CCN(c4nnc(-c5ccccc5)c(-c5ccccc5)n4)CC3)CC2)cc1 | > 100 | > 100 | > 100 | > 100 | > 100 | 31.1 | 6.63 | > 100 | 18.5 | > 100 | 43.2 | 5.67 | 6.82 | 3.61 | 35.8 | 3.98 | 2.32 | 10.4 | 2.56 | 9.39
COC(=O)c1[nH]nc(-c2ccccc2)c1N1CCCCC1 | > 100 | > 100 | > 100 | > 100 | > 100 | > 100 | > 100 | > 100 | 72.4 | 68.2 | 60.8 | 55.8 | 39.3 | 86.7 | 44.2 | 38 | 34 | 75.6 | 27 | 32.5
Cc1ccc(C(=O)Nc2ccc(CN3CCN(C)CC3)c(C(F)(F)F)c2)cc1C#Cc1cncc2ncccc12 | 0.755 | 4.49 | 0.951 | 4.75 | 4.96 | 7.68 | 8.14 | 1.76 | 21.1 | 1.41 | 0.0879 | 0.338 | 0.113 | 0.289 | 0.446 | 0.584 | 2.63 | 0.443 | 1.58 | 0.253
CC(=O)OC1CCC2(C)C(CCC3C2CCC2(C)C(C4=CC(=O)OC4)CCC32)C1 (stereo not given) | 53.2 | > 100 | 23.1 | 95.1 | 36.7 | 3.03 | 6.58 | > 100 | 45.5 | 22.9 | 16.9 | 22.2 | 4.23 | 12.1 | 4.2 | 0.928 | 2.37 | 32 | 13.1 | 5.53
c1ccc(-c2n(Cc3ccc4ccccc4n3)c3ccccc3[n+]2Cc2ccc3ccccc3n2)cc1 | 1.28 | 1.3 | 1.65 | 1.82 | 1.46 | 0.845 | 0.502 | 1.69 | 1.96 | 1.91 | 0.244 | 0.344 | 0.336 | 0.238 | 0.341 | 0.0936 | 0.219 | 0.359 | 0.193 | 0.426
COc1cc(C2c3cc4c(cc3C3OC(=O)C2C3CO)OCO4)cc(OC)c1OC (stereo not given) | > 100 | > 100 | > 100 | > 100 | > 100 | > 100 | 0.047 | > 100 | > 100 | > 100 | 0.035 | 0.0132 | 0.0262 | 0.0446 | 0.0274 | 0.0282 | 0.0176 | 0.0244 | 0.0181 | 0.0535
COC(=O)[C@]12CC[C@@H](C)[C@H](C)[C@@H]1C1=CC[C@@H]3[C@@]4(C)C(c5ncon5)=C[C@@](C)(CO)C4=CC[C@@]3(C)[C@]1(C)CC2 | 7.19 | 3.99 | 3.55 | 11.8 | 10.2 | 6.33 | 3.41 | 3.85 | 5.86 | 5.36 | 2.47 | 1.98 | 1.67 | 3.1 | 3.41 | 2.32 | 1.88 | 1.96 | 1.99 | 2.17
